Where two headings read alike, the source gives them in different places.
Columns and labels:
A-549 = assay: cells
Description: (§1) This form of the assay employs 96 well cell culture microplates of 9 mm diameter (Faircloth, 1988; Mosmann, 1983). Most of the cell lines are obtained from American Type Culture Collection (ATCC) derived from different human cancer types.
(§2) Cells are maintained in RPMI 1640 10% FBS, supplemented with 0.1 g/l penicillin and 0.1 g/l streptomycin sulfate and then incubated at 37° C., 5% CO2 and 98% humidity. For the experiments, cells were harvested from subconfluent cultures using trypsin and resuspended in fresh medium before plating.
(§3) Cells are seeded in 96 well microtiter plates, at 5×10^3 cells per well in aliquots of 195 μl medium, and they are allowed to attach to the plate surface by growing in drug free medium for 18 hours. Afterward, samples are added in aliquots of 5 μl in a ranging from 10 to 10^−8 μg/ml, dissolved in DMSO/EtOH/PBS (0.5:0.5:99). After 48 hours exposure, the antitumor effect are measured by the SRB methodology: cells are fixed by adding 50 μl of cold 50% (wt/vol) trichloroacetic acid (TCA) and incubating for 60 minutes at 4° C. Plates are washed with deionized water and dried. One hundred μl of SRB solution (0.4% wt/vol in 1% acetic acid) is added to each microtiter well and incubated for 10 minutes at room temperature. Unbound SRB is removed by washing with 1% acetic acid. Plates are air dried and bound stain is solubilzed with Tris buffer. Optical densities are read on a automated spectrophotometric plate reader at a single wavelength of 490 nm.
(§4) The values for mean +/− SD of data from triplicate wells are calculated. Some parameters for cellular responses can be calculated: GI=growth inhibition, TGI=total growth inhibition (cytostatic effect) and LC=cell killing (cytotoxic effect).

HT-29 = assay: cells
Description: as §1, §2, §3, §4

[1] = Homo sapiens, A549, 48 h, read-out: GI50 A549
[2] = Homo sapiens, A549, 48 h, read-out: LC50 A549
[3] = Homo sapiens, A549, 48 h, read-out: TGI A549
[4] = Homo sapiens, HT-29, 48 h, read-out: GI50 HT29
[5] = Homo sapiens, HT-29, 48 h, read-out: LC50 HT29
[6] = Homo sapiens, HT-29, 48 h, read-out: TGI HT29
[7] = Homo sapiens, A549, 48 h, read-out: A549 GI50
[8] = Homo sapiens, A549, 48 h, read-out: A549 LC50
[9] = Homo sapiens, A549, 48 h, read-out: A549 TGI
[10] = Homo sapiens, HT-29, 48 h, read-out: HT29 GI50
[11] = Homo sapiens, HT-29, 48 h, read-out: HT29 LC50
[12] = Homo sapiens, HT-29, 48 h, read-out: HT29 TGI

## C=CCN1[C@@H]2c3c(cc(C)c(OC)c3OCOCCOC)C[C@H]1[C@H](C#N)N1C2CC2(O)C(=O)C(C)=C3OCOC3=C2[C@@H]1CO[Si](c1ccccc1)(c1ccccc1)C(C)(C)C (stereo partly drawn) [compound 8]
A-549; [1]
  GI50: 11.8 µM
A-549; [2]
  CC50: 11.8 µM
A-549; [3]
  IC (TGI): 11.8 µM
HT-29; [4]
  GI50: 7.82 µM
HT-29; [5]
  CC50: 11.8 µM
HT-29; [6]
  IC (TGI): 11.8 µM

## COCCOCOc1c(OC)c(C)cc2c1[C@H]1N[C@@H](C2)[C@H](C#N)N2C1CC1(O)C(=O)C(C)=C3OCOC3=C1[C@@H]2CO[Si](c1ccccc1)(c1ccccc1)C(C)(C)C (stereo partly drawn) [compound 7]
A-549; A549, SRB, 48 hours exposure
  TGI A549: 3.51E−06 Molar
A-549; read-out: GI50 A549, A549, SRB, 48 hours exposure
  GI50: 1.87 µM
A-549; read-out: LC50 A549, A549, SRB, 48 hours exposure
  CC50: 6.61 µM
HT-29; HT29, SRB, 48 hours exposure
  TGI HT29: 2.40E−06 Molar
HT-29; read-out: GI50 HT29, HT29, SRB, 48 hours exposure
  GI50: 0.918 µM
HT-29; read-out: LC50 HT29, HT29, SRB, 48 hours exposure
  CC50: 5.46 µM

## COCCOCOc1c(OC)c(C)cc2c1[C@@H]1C3CC4(O)C(=O)C(C)=C5OCOC5=C4[C@H](CNC(=O)[C@H](CSCC4c5ccccc5-c5ccccc54)NC(=O)OC(C)(C)C)N3[C@@H](C#N)[C@H](C2)N1C (stereo partly drawn) [compound 72]
A-549; [7]
  GI50: 0.0519 µM
A-549; [8]
  CC50: 4.15 µM
A-549; [9]
  IC (TGI): 0.104 µM
HT-29; [10]
  GI50: 1.04 µM
HT-29; [11]
  CC50: 5.19 µM
HT-29; [12]
  IC (TGI): 1.04 µM

## COc1cc2c(cc1O)CCN[C@]21C[S+]([O-])[C@@H]2c3c(OC(C)=O)c(C)c4c(c3[C@H](COC1=O)N1C2C2c3c(cc(C)c(OC)c3O)C[C@@H]([C@@H]1C#N)N2C)OCO4 (stereo partly drawn) [compound 17]
A-549; [1]
  GI50: 0.0229 µM
A-549; [2]
  CC50: 0.117 µM
A-549; [3]
  IC (TGI): 0.0521 µM
HT-29; [4]
  GI50: 0.0391 µM
HT-29; [5]
  CC50: 12.7 µM
HT-29; [6]
  IC (TGI): 0.086 µM

## C=CCOc1c(C)c2c(c3c1CC1[C@@H]4N[C@@H](Cc5cc(C)c(OC)c(OCOCCOC)c54)[C@H](C#N)N1[C@H]3CO[Si](c1ccccc1)(c1ccccc1)C(C)(C)C)OCO2 (stereo partly drawn) [compound 5]
A-549; [1]
  GI50: 0.721 µM
A-549; [2]
  CC50: 8.41 µM
A-549; [3]
  IC (TGI): 2.4 µM
HT-29; [4]
  GI50: 0.481 µM
HT-29; [5]
  CC50: 6.01 µM
HT-29; [6]
  IC (TGI): 1.2 µM

## COCCOCOc1c(OC)c(C)cc2c1[C@H]1N[C@@H](C2)[C@H](C#N)N2C1Cc1c(O)c(C)c3c(c1[C@@H]2CO[Si](c1ccccc1)(c1ccccc1)C(C)(C)C)OCO3 (stereo partly drawn) [compound 6]
A-549; [1]
  GI50: 6.65 µM
A-549; [2]
  CC50: 12.6 µM
A-549; [3]
  IC (TGI): 12.6 µM
HT-29; [4]
  GI50: 12.5 µM
HT-29; [5]
  CC50: 12.6 µM
HT-29; [6]
  IC (TGI): 12.6 µM

## C=CCOc1c(C)c2c(c3c1CC1[C@H]4c5c(cc(C)c(OC)c5OCOCCOC)C[C@@H]([C@H](C#N)N1[C@H]3CNC(=O)[C@H](CSCC1c3ccccc3-c3ccccc31)NC(=O)OC(C)(C)C)N4C)OCO2 (stereo partly drawn) [compound 70]
A-549; [7]
  GI50: 5.06 µM
A-549; [8]
  CC50: 50.6 µM
A-549; [9]
  IC (TGI): 50.6 µM
HT-29; [10]
  GI50: 10.1 µM
HT-29; [11]
  CC50: 50.6 µM
HT-29; [12]
  IC (TGI): 10.1 µM
